Test results: patent US20250115628A1, “FLUORINATED FLUOROPHORES” (HOWARD HUGHES MEDICAL INSTITUTE, priority 2023, published 2025)

Assays:
Type in all cases: cell-based
[1] = molecular target: T1, U2OS cells stably expressing HaloTag®-histone H2B fusion protein (Rhodococcus rhodochrous, UniProt P0A3G2, A155T/A167V/A172T/A224E/C128F/C176G/D78G/E160K/E257K/H272N/K175M/K195N/L47V/L88M/N227D/P291S/S58T/T264A/Y273L/Y87F); assay: Labeling and confocal microscopy using ligands 59HTL and 105HTL; settings: 200 nM, 1 h, washed
T1 construct: expressed in transfected cells
T1 sequence (P0A3G2 other isoform, or with tags, fused parts or gaps with the stated changes): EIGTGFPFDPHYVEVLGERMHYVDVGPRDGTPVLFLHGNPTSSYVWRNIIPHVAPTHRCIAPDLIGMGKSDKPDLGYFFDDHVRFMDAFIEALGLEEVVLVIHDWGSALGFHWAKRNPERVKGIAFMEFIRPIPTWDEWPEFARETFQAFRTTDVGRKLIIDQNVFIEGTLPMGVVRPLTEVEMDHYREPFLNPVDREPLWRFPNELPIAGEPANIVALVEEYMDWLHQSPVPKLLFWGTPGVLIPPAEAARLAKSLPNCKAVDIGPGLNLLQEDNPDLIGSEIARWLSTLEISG
Experimental: (§1) U2OS cells (ATCC) and U2OS cells stably expressing an integrated HaloTag®-histone H2B fusion protein (U2OS·H2B·HaloTag®) were cultured in Dulbecco's modified Eagle medium (DMEM, phenol red-free; Life Technologies) supplemented with 10% (v/v) fetal bovine serum (FBS, Life Technologies), 1 mM GlutaMAX (Life Technologies) and maintained at 37° C. in a humidified 5% (v/v) CO2 environment. These cell lines undergo regular mycoplasma testing by the Janelia Cell Culture Facility. For mitochondrial imaging using the HaloTag® system, U2OS cells were transiently transfected using nucleofection (Lonza) with a plasmid constitutively expressing a HaloTag®-TOMM20 fusion protein, which is located on the outer mitochondrial membrane. For 4^−color imaging, U2OS·H2B·HaloTag® stable cells were transiently transfected by nucleofection with plasmids constitutively expressing a SNAP-tag®-TOMM20 fusion protein, and a GFP-SKL (SKL: serine-lysine-leucine) fusion protein, a prototypical peroxisomal matrix targeting signal. All labeled cells were imaged 18-24 h post-transfection or post-plating. […]

[2] = system: JM8·N4 mouse embryonic stem cells stably expressing histone H2B-HaloTag® fusion proteins; assay: Single-particle tracking (SPT) experiments; settings: 100 Hz imaging
Experimental: SPT experiments were carried out as previously described.^84 JM8·N4 mouse embryonic stem cells (ESCs) stably expressing histone H2B-HaloTag® fusion proteins were generated by co-expressing the PiggyBac EF1a-H2B-HaloTag®-IRES-Neo vector with the super piggyBac transposase as described previously,85 followed by G418 selection (500 μg/mL) for 2 weeks and verified by FACS sorting/confocal imaging staining with JF549-HaloTag® ligand (84HTL; 100 nM, 30 min). Cells were seeded on 25 mm #1.5 coverglass pre-cleaned with KOH and ethanol and coated with iMatrix-511 (TaKaRa #T304) or rhLaminin-521 (Gibco™ #A^29248) according to the manufacturers' instruction. All live-cell imaging experiments were conducted using an ESC imaging medium composed of FluoroBrite DMEM (ThermoFisher) plus 15% v/v ESC-qualified FBS, 1× GlutaMax, 1×NEAA, 0.1 mM 2^−mercaptoethanol, and LIF. For comparison of 59HTL and 89HTL (FIG. 13E, 13F) the histone H2B-HaloTag® ESCs were stained with 5 nM 59HTL for 1 h or 0.1 nM 89HTL for 15 min at 37° C. with 5% (v/v) CO2 to achieve sparse labeling with approximately equal localizations per region of interest (ROI), and then washed with dye-free media 3× for 30 min each wash For comparison of 40HTL, 44HTL, 1HTL, or 89HTL (FIG. 12A-12G) the histone H2B-HaloTag® ESCs were stained with 1 nM of HaloTag® ligands for 15 min at 37° C. with 5% (v/v) CO2 to achieve sparse labeling, and then washed with dye-free media 3× for 30 min each wash.
To quantify the brightness and photostability of the HaloTag® ligands, labeled cells were mounted onto a high speed motorized Nikon Eclipse Ti-E inverted microscope equipped with the following: 100× Apo TIRF 1.49 NA objective with a correction collar; four excitation laser lines (405/488/561/642 nm) and matching TIRF quad cube (405/488/561/640 nm reflection bands); automatic TIRF illuminator with motorized X axis and manual Y axis for beam positioning and focus: perfect focus 3 system; Triple DU-897 iXon Ultra EMCCD cameras on a Cairn Tri-cam emission splitter with filters 525/50 (GFP) 600/50 (RFP) and 705/72 (Cy5); humidified incubation chamber maintained at 37° C. with 5% v/v CO2 (Tokai Hit). SPT was performed at 100 Hz for the comparison of 59HTL and 89HTL (FIG. 13E, 13F) and 50 Hz for the comparison of 40HTL, 44HTL, 1HTL, or 89HTL (FIG. 12A-12G); the imaging session was performed for ˜5000 frames using 100% of maximal excitation power (˜120 mW at the fiber end before the TIRF unit). […] For the comparison of HaloTag® ligands 59HTL and 89HTL (FIG. 13E, 13F) and the comparison of compounds 40HTL, 44HTL, 1HTL, and […] (FIG. 12A-12G), the fluorophores were excited with a 647 nm laser. To minimize drift during imaging, the incubation chamber was fully thermally equilibrated, and all imaging was conducted in an isolated ultra-clean room with minimal mechanical vibrations. The microscope, laser lines, and camera integration were controlled using the Nikon NIS-Elements software. Cells with obvious movement during acquisition were removed from further analysis. SMT analysis was based on multiple target tracing 86 (MTT) with tracking parameters similar to previous work.^84 For SPT brightness (photon counts/molecule/s), intensity values from sparsely-labeled molecules were analyzed. For the comparison of HaloTag® ligands 59HTL and 89HTL (FIG. 13E, 13F): n=147,298 single-molecule events using 59HTL; n=100,392 single-molecule events using 89HTL. […]

[3] = system: U2OS cells stably expressing HaloTag®-histone H2B fusion protein; assay: Loading experiments with NIR-excited HaloTag® ligands (nuclear fluorescence); settings: 200 nM; live cells expressing HaloTag®-histone H2B; excited at λabs
Experimental: U2OS cells (ATCC) and U2OS cells stably expressing an integrated HaloTag®-histone H2B fusion protein (U2OS·H2B·HaloTag®) were cultured in Dulbecco's modified Eagle medium (DMEM, phenol red-free; Life Technologies) supplemented with 10% (v/v) fetal bovine serum (FBS, Life Technologies), 1 mM GlutaMAX (Life Technologies) and maintained at 37° C. in a humidified 5% (v/v) CO2 environment. These cell lines undergo regular mycoplasma testing by the Janelia Cell Culture Facility. For mitochondrial imaging using the HaloTag® system, U2OS cells were transiently transfected using nucleofection (Lonza) with a plasmid constitutively expressing a HaloTag®-TOMM20 fusion protein, which is located on the outer mitochondrial membrane. For 4^−color imaging, U2OS·H2B·HaloTag® stable cells were transiently transfected by nucleofection with plasmids constitutively expressing a SNAP-tag®-TOMM20 fusion protein, and a GFP-SKL (SKL: serine-lysine-leucine) fusion protein, a prototypical peroxisomal matrix targeting signal. All labeled cells were imaged 18-24 h post-transfection or post-plating.
For loading curve experiments (FIG. 15C), U2OS·H2B·HaloTag® stable cells were incubated with 200 nM HaloTag® ligand conjugated dyes (31HTL, 36HTL, 38HTL, 104HTL, 106HTL, 107HTL, and 108HTL) for 0-4 h at 37° C., washed 3× with dye-free media then fixed with 4% paraformaldehyde in 0.1 M phosphate buffer, pH 7.4 for 15 min at 37° C. Confocal imaging was performed on a Leica Stellaris with an HC PL APO 40×/1.25 glycerol objective using the tunable white light laser (WLL) to excite dyes at their λabs in constant power mode. Fluorescence was quantified as the integrated density of nuclear signals in single-plane images analyzed in FIJI;^82 n=100 nuclear signals per compound.

[4] = system: U2OS cells stably expressing HaloTag®-histone H2B fusion protein; assay: Photostability experiments in fixed cells; settings: 200 nM; 30 bleach cycles
Experimental: as §1, with “membrane.” for “membrane. For 4^−color imaging, U2OS·H2B·HaloTag® stable cells were transiently transfected by nucleofection with plasmids constitutively expressing a SNAP-tag®-TOMM20 fusion protein, and a GFP-SKL (SKL: serine-lysine-leucine) fusion protein, a prototypical peroxisomal matrix targeting signal. All labeled cells were imaged 18-24 h post-transfection or post-plating.”
For photostability experiments (FIG. 1611), U2OS·H2B·HaloTag® stable cells were incubated with 200 nM HaloTag® ligands (31HTL, 106HTL, and 107HTL) for 3 h at 37° C., washed 3× with dye-free media then fixed with 4% paraformaldehyde in 0.1 M phosphate buffer, pH 7.4 for 15 min at 37° C. […] To measure photobleaching, the tunable white light laser (WLL) was used to excite dyes at their λabs in constant power mode over 30 cycles; n=3 where n indicates the number of separate cellular experiments where the intensity of the entire field of view was measured at the indicated time points. […]

CCc1cc2c(c3c1=[N+](C)CCC3)C(C)(C)c1cc3c(cc1C=2c1c(F)c(C(=O)NCCOCCOCCCCCCCl)c(F)c(F)c1C(=O)[O-])C(C)CC(C)(C)N3CC (stereo not drawn) [59HTL, JF657-HaloTag® ligand]
nuclear labeling of histone H2B-HaloTag® in live cells [1]: excellent nuclear staining with little cellular background after washing | SPT brightness (photons/s) compared with 89HTL [2]: significant improvement in brightness | SPT localizations over time [2]: consistent localizations over time

CCc1cc2c(c3c1=[N+](C)CCC3)[Si](C)(C)c1c(cc3c4c1CCCN4CCC3)C=2c1c(F)c(C(=O)NCCOCCOCCCCCCCl)c(F)c(F)c1C(=O)[O-] [31HTL, JF698-HaloTag® ligand]
nuclear intensity compared to the other ligands [3]: > 3 fold | brightness and photostability compared with 107HTL and 106HTL [4]: brighter and more photostable

ATTO 647N-HaloTag® ligand [105HTL, reference compound]
nuclear labeling of histone H2B-HaloTag® in live cells [1]: does not show appreciable labeling in the nucleus
